Laboratory results as given in patent US5284853A, “Angiotensin II receptor blocking 2,3,6 substituted quinazolinones” (American Cyanamid Company, priority 1993, dated 1994).
pIC50: −log10 of the molar value. Values joined by “and” are separate entries in the source; they are usually repeats but may differ in a detail not shown here. Equal entries are not always repeated.

What was measured:
[1] = system: Angiotensin II (AII) vasopressor response; test: AII Challenge: antagonism of the angiotensin II vasopressor response in conscious SHR; type: in vivo, Spontaneously hypertensive rats (Male okamoto-Aoki SHR); settings: 15 mg/kg I.V.; for Average Change / Inhibition: n = 2; for Change / Control Before AII / Response After AII: per rat
From the text: […] Conscious Male okamoto-Aoki SHR, 16-20 weeks old, weighing approximately 330 g are purchased from Charles River Labs (Wilmington, MA). Conscious rats are restrained in a supine position with elastic tape. The area at the base of the tail is locally anesthetized by subcutaneous infiltration with 2% procaine. […] The cannula is secured, heparinized (1,000 I.U./ml), sealed and the wound is closed. The animals are placed in plastic restraining cages in an upright position. The cannula is attached to a Statham P23Db pressure transducer, and pulsatile blood pressure is recorded to 10-15 minutes with a Gould Brush recorder. (Chan et al., (Drug Development Res., 18:75-94, 1989). […] Co., St. […] […] […] […] […] A compound is considered active if at 30 mg/kg i.v. it antagonized at least 50% of the response.

[2] = target: T1, Angiotensin II Receptor (Bos taurus, UniProt P25104); test: Receptor binding assay: competition of [^125 I](Sar^1,Ile^8)AngII binding to beef adrenal cortex microsomal membranes; settings: 60 min, room temperature, pH 7.4
T1 construct: The brownish tissue forming the adrenal cortex is scraped off and finely minced with scissors before homogenization; tissue local slaughter house (Maxwell-Cohen); host or cells: beef adrenal cortex, microsomal membranes (100,000×g pellet)
T1 sequence (P25104 1-359): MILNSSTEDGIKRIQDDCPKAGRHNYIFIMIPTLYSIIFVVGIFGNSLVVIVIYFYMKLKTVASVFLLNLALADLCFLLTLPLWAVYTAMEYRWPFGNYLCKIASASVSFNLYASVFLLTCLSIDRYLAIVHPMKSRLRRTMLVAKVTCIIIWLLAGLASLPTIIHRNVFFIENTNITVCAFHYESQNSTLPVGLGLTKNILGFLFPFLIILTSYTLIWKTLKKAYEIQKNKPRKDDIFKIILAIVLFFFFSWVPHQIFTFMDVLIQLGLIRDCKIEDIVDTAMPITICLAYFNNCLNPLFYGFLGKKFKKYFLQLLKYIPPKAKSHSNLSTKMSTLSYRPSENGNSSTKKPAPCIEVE
From the text: Beef adrenals are obtained from a local slaughter house (Maxwell-Cohen). [^125 […]. 2200 Ci/mmole, is purchased from Dupont (KEN@, Boston, Mass.). All unlabeled AngII analogs, Dimethylsulfoxide (DMSO), nucleotides, bovine serum albumin (BBA) are purchased from Sigma Chemical Co., St. Louis, MO U.S.A. Approximately sixteen (16) to twenty (20) beef adrenal glands are processed as follows: fresh adrenal glands received on crushed ice are cleaned of fatty tissues and the tough membranes encapsulating the glands are removed and discarded. The brownish tissue forming the adrenal cortex is scraped off and finely minced with scissors before homogenization care is taken to avoid contamination with medullary tissue during dissection. […] Unless otherwise indicated, all subsequent operations are done at […]. […] The homogenate is centrifuged first at low speed (3,000×g) for 10 min. […] This P2 pellet is discarded and the liquid phase is carefully decanted off in clean centrifuge tubes and recentrifuged at high speed (100,000×g) for 60 min. The translucent final pellet is harvested and combined in a small volume (20-50.0 ml) of […] Tris.HCl buffer, pH 7.2. A 100 ul aliquot is withdrawn and the protein content of the preparation is determined by the Lowry's method (Lowry, O. H., Rosebrough, N. P., Parr, A. L. and Randall, R. J., Protein measurement with Folin phenol reagent. J. Biol. Chem., […], 265-275, 1951). The pelleted membrane is reconstituted in 50.0 mM Tris.HCl buffer containing 0.1 mM of phenylmethylsulfonyl fluoride (PMSF) to give approximately a protein concentration of 2.5 mg per ml of tissue suspension. […] In competition studies, experimental compounds are diluted in dimethylsulfoxide (DMSO) and added in 20 ul to wells before the introduction of tissue membranes. This concentration of DMSO is found to have no negative effects on the binding of [^125 I] ([…] to the membranes. Assays are performed in triplicate. The wells are left undisturbed for 60 min. at room temperature. Following incubation, all wells are harvested at once with a Brandel® Harvester especially designed for a 96 well plate (Brandel® Biomedical Research & Development Labs. Inc., Gaithersburg, MD, U.S.A.). The filter discs are washed with 10×1.0 ml of cold 0.9% NaCl to remove unbound ligand. Presoaking the filter sheet in 0.1% polyethyleneimine in normal saline (PEI/Saline) greatly reduces the radioactivity retained by the filter blanks. This method is routinely used. The filters are removed from the filter grid and counted in a Parkard® Cobra Gamma Counter for 1 min. (Packard Instrument Co., Downers Grove, Ill, U.S.A.). The binding data are analyzed by the non-linear interactive "LUNDON-11" program (LUNDON SOFTWARE Inc., Cleveland, OH U.S.A.).

[3] = AII 0.05 mcg/kg IV, 30 min post dose
[4] = AII 0.05 mcg/kg IV, 60 min post dose
[5] = AII 0.05 mcg/kg IV, 90 min post dose
[6] = AII 0.05 mcg/kg IV, 120 min post dose
[7] = AII 0.05 mcg/kg IV, 180 min post dose
[8] = AII 0.1 mcg/kg IV, 30 min post dose
[9] = AII 0.1 mcg/kg IV, 60 min post dose
[10] = AII 0.1 mcg/kg IV, 90 min post dose
[11] = AII 0.1 mcg/kg IV, 120 min post dose
[12] = AII 0.1 mcg/kg IV, 180 min post dose

Question: Which “Average Change” value [1, 3] does the source give for `CCCCc1nc2ccc(C3(C)CC(C(=O)OCC)=NO3)cc2c(=O)n1Cc1ccc(-c2ccccc2-c2nnn[nH]2)cc1` (stereo not drawn) [Example 30] here?
Answer: Its value is 10 mmhg.

Question: What about the Inhibition [1, 3] of the same compound?
Answer: Its Inhibition is 78%.

Question: What about the Change [1, 3] of the same compound?
Answer: The Change was 15 mmhg and 5 mmhg.

Question: What about the “Control Before AII” value [1, 3] of the same compound?
Answer: Its value is 175 mmhg and 215 mmhg.

Question: And the “Response After AII” value [1, 3]?
Answer: Its value is 190 mmhg and 220 mmhg.

Question: What about the “Average Change” value [1, 4] of the same compound?
Answer: Its value is 9 mmhg.

Question: What about the Inhibition [1, 4] of the same compound?
Answer: Its Inhibition is 80%.

Question: What about the Change [1, 4] of the same compound?
Answer: Its Change is 0 mmhg and 18 mmhg.

Question: What about the “Control Before AII” value [1, 4] of the same compound?
Answer: The value was 190 mmhg and 207 mmhg.

Question: What about the “Response After AII” value [1, 4] of the same compound?
Answer: The value was 190 mmhg and 225 mmhg.

Question: What about the “Average Change” value [1, 5] of the same compound?
Answer: The value was 20 mmhg.

Question: And the Inhibition [1, 5]?
Answer: The Inhibition was 57%.

Question: And the Change [1, 5]?
Answer: Its Change is 20 mmhg.

Question: And the “Control Before AII” value [1, 5]?
Answer: The value was 170 mmhg and 210 mmhg.

Question: What about the “Response After AII” value [1, 5] of the same compound?
Answer: The value was 190 mmhg and 230 mmhg.

Question: What about the “Average Change” value [1, 6] of the same compound?
Answer: The value was 35 mmhg.

Question: And the Inhibition [1, 6]?
Answer: The Inhibition was 24%.

Question: And the Change [1, 6]?
Answer: The Change was 40 mmhg and 30 mmhg.

Question: What about the “Control Before AII” value [1, 6] of the same compound?
Answer: Its value is 165 mmhg and 200 mmhg.

Question: And the “Response After AII” value [1, 6]?
Answer: Its value is 205 mmhg and 230 mmhg.

Question: What about the “Average Change” value [1, 7] of the same compound?
Answer: Its value is 5 mmhg.

Question: What about the Inhibition [1, 7] of the same compound?
Answer: The Inhibition was 89%.

Question: And the Change [1, 7]?
Answer: The Change was 5 mmhg.

Question: And the “Control Before AII” value [1, 7]?
Answer: The value was 200 mmhg and 240 mmhg.

Question: What about the “Response After AII” value [1, 7] of the same compound?
Answer: The value was 205 mmhg and 245 mmhg.

Question: What about the “Average Change” value [1, 8] of the same compound?
Answer: Its value is 17 mmhg.

Question: And the Inhibition [1, 8]?
Answer: Its Inhibition is 58%.

Question: And the Change [1, 8]?
Answer: The Change was 14 mmhg and 20 mmhg.

Question: And the “Control Before AII” value [1, 8]?
Answer: The value was 170 mmhg and 210 mmhg.

Question: And the “Response After AII” value [1, 8]?
Answer: The value was 184 mmhg and 230 mmhg.

Question: What about the “Average Change” value [1, 9] of the same compound?
Answer: Its value is 20 mmhg.

Question: What about the Inhibition [1, 9] of the same compound?
Answer: The Inhibition was 50%.

Question: What about the Change [1, 9] of the same compound?
Answer: The Change was 15 mmhg and 25 mmhg.

Question: And the “Control Before AII” value [1, 9]?
Answer: The value was 185 mmhg and 200 mmhg.

Question: And the “Response After AII” value [1, 9]?
Answer: The value was 200 mmhg and 225 mmhg.

Question: What about the “Average Change” value [1, 10] of the same compound?
Answer: The value was 32.5 mmhg.

Question: What about the Inhibition [1, 10] of the same compound?
Answer: The Inhibition was 19%.

Question: What about the Change [1, 10] of the same compound?
Answer: The Change was 35 mmhg and 30 mmhg.

Question: What about the “Control Before AII” value [1, 10] of the same compound?
Answer: The value was 165 mmhg and 205 mmhg.

Question: And the “Response After AII” value [1, 10]?
Answer: The value was 200 mmhg and 235 mmhg.

Question: And the “Average Change” value [1, 11]?
Answer: Its value is 29 mmhg.

Question: What about the Inhibition [1, 11] of the same compound?
Answer: The Inhibition was 28%.

Question: What about the Change [1, 11] of the same compound?
Answer: The Change was 25 mmhg and 33 mmhg.

Question: And the “Control Before AII” value [1, 11]?
Answer: The value was 175 mmhg and 200 mmhg.

Question: And the “Response After AII” value [1, 11]?
Answer: Its value is 200 mmhg and 233 mmhg.

Question: And the “Average Change” value [1, 12]?
Answer: Its value is 15 mmhg.

Question: What about the Inhibition [1, 12] of the same compound?
Answer: The Inhibition was 63%.

Question: And the Change [1, 12]?
Answer: Its Change is 25 mmhg and 5 mmhg.

Question: And the “Control Before AII” value [1, 12]?
Answer: Its value is 190 mmhg and 240 mmhg.

Question: What about the “Response After AII” value [1, 12] of the same compound?
Answer: Its value is 215 mmhg and 245 mmhg.

Question: What about the pIC50 [2] of the same compound?
Answer: The pIC50 was 6.70.
